Experimental findings from US20220235006A1, “PYRIDINE DERIVATIVES AS TMEM16A MODULATORS FOR USE IN THE TREATMENT OF RESPIRATORY CONDITIONS” (TMEM16A LIMITED, priority 2019, published 2022) are described below.

The structures appear in SMILES notation. ≈ marks a conversion by molar mass, not a printed value.

Data set [1] in a line: Kinetic solubility determination (high throughput). In kind it is physicochemical. The following applies: kinetic from dmso stock, sterile water, 5% DMSO, room temperature. The method, then: Test compounds (10 μL; 20 mM DMSO solution) were added to sterile water (190 μL) in triplicate and shaken at 300 rpm at room temperature. After 90 min. the test compounds were filtered by centrifuge (5 min. at 3000 rpm) to obtain the aqueous filtrate. Acetonitrile (20 μL) was dispensed into clean 96-well UV/VIS analysis plate and aqueous filtrate (80 μL) added and the plate analysed for test compound concentration using a Molecular Devices SPECTRAmax® plus microplate reader at the following wavelengths: (280, 300, 320, 340, 360, 800 nm). […] The diluted filtrate (80 μL) was then added to acetonitrile (20 μL) and the plate analysed. as previously.

Data set [2] deals with T1, human TMEM16A (TMEM16Aabc variant) (Homo sapiens, UniProt Q5XXA6, DEL476-501).
T1 sequence (Q5XXA6 with tags, fused parts or gaps isoform Q5XXA6-5 DEL539-564): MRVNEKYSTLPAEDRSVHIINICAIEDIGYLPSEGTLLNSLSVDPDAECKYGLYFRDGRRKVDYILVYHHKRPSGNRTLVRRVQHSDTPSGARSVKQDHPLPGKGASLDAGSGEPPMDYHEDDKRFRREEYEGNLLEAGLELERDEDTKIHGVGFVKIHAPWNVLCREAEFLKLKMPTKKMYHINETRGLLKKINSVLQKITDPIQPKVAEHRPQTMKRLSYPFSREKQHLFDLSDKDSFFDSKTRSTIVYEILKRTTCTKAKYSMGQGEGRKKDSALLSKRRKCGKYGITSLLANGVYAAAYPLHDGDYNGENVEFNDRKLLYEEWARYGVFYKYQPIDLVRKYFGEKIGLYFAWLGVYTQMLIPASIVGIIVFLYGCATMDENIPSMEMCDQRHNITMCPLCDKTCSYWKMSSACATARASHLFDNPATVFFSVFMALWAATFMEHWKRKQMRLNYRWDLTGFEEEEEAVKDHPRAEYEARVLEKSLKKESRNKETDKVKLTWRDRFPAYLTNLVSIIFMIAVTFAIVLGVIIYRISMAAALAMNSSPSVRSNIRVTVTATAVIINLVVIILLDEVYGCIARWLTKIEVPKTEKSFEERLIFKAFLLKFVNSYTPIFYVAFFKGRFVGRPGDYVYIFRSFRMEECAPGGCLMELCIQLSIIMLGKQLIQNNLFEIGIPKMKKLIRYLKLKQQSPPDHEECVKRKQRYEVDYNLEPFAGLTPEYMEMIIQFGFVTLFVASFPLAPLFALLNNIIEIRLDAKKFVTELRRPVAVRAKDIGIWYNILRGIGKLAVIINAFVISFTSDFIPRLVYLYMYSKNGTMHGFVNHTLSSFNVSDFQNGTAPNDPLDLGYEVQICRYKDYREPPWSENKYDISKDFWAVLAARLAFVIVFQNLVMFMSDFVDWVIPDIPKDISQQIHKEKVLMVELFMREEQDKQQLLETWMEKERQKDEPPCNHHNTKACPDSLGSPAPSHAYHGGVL
Description: Automated whole-cell patch clamp (Qpatch) TMEM16A potentiator assay in recombinant FRT cells. The following applies: for activation at 3.33 µM: percentage increase of baseline TMEM16A current, minimum n = 2, read-out: % Potentiation @ 3.33 uM Avg; for EC50: minimum n = 2. Format: cell-based. How it is done:
Automated Whole-Cell Patch Clamp Assay to Detect TMEM16A Activity in Recombinant Cells
Fisher rat thyroid (FRT) cells stably expressing human TMEM16A (TMEM16Aabc variant; Dr Luis Galietta, Insituto Giannina, Italy) were cultured in T-75 flasks in Hams F-12 media with Coon's modification (Sigma) supplemented with 10% (v/v) foetal bovine serum, penicillin-streptomycin (10,000 U/mL/10000 μg/mL), G-418 (750 μg/mL), L-glutamine (2 mM) and sodium bicarbonate solution (7.5% v/v). At ˜90% confluence cells were harvested for experiments by detachment with a 2:1 (v/v) mixture of Detachin (BMS Biotechnology) and 0.25% (w/v) trypsin-EDTA.
FRT-TMEM16A cells were whole-cell patch clamped using an automated planar patch clamp system (Qpatch, Sophion). Briefly, once high resistance (GOhm) seals were established between the cells and the planar recording array the patch was ruptured using suction pulses to establish the whole-cell recording configuration of the patch clamp technique. The assay employed the following solutions (all reagents Sigma): Intracellular solution (mM): N-methyl-D-glucamine 130, CaCl2 18.2, MgCl2 1, HEPES 10, EGTA 10, BAPTA 20, Mg-ATP 2, pH 7.25, 325 mOsm with sucrose.
Extracellular solution (mM): N-methyl-D-glucamine 130, CaCl2 2, MgCl2 1, HEPES 10, pH 7.3, 320 mOsm with sucrose.
The intracellular solution buffers intracellular calcium at levels required to give ˜20% activation of the maximal TMEM16A mediated current (E020 for calcium ions). Cells were voltage clamped at a holding potential of −70mV and a combined voltage step (to +70 mV)/ramp (−90 my to +90 mV) was applied at 0.05 Hz. After a period of current stabilisation test compounds, solubilised in 100% (v/v) DMSO and subsequently diluted into extracellular solution, were applied to generate a cumulative concentration response curve. Each concentration of test compound was incubated for 5 minutes before addition of the next concentration. After the final concentration was tested a supramaximal concentration of either a known active positive modulator or the TMEM16A inhibitor, CaCCinhA01 (Del La Fuente et al, 2008) was added to define the upper and lower limits of the assay.
Compound activity was quantified by measuring the increase in current upon compound addition and expressing this as a percentage increase of baseline TMEM16A current level.
Peak TMEM16A current at +70 mV was plotted as a function of time over the assay period. Baseline current (IBL) was measured after a period of stabilisation. The increase in current for each compound addition was determined by taking the peak current during the incubation period and subtracting the current from the previous recording period and then expressing this as a percentage of the baseline current (% potentiation). For test compound concentration 1 in FIG. 1 this is:
For each additional concentration tested the increase in current was determined by subtracting the current from the previous incubation period and normalising the baseline value—for test concentration 2 in FIG. 1 this is:
The values for each test concentration were plotted as a cumulative function of concentration eg. for test concentration two this would be the sum of the peak changes measured during concentration one plus concentration two.
In general terms: Patch clamp records ionic current or voltage across a cell membrane.

Data set [3] is described as follows: Log D (pH7.4 shake flask). The following applies: pH 7.4; 1-octanol/phosphate buffer shake flask; read-out: mLogD (pH 7.4). Format: physicochemical. How it is done: Phosphate buffer (1 M) was diluted to 20 mM with deionised water and adjusted to pH 7.4 with phosphoric acid or sodium hydroxide. 1-octanol and phosphate buffer (20 mM) were saturated overnight by tumbling. The two phases were separated using a separation funnel. 5 μL of 5 mM compound cassette was added to 495 μL of octanol-saturated buffer and 495 μL buffer saturated octanol in a 96-well plate (top concentration 50 μM). Plate was shaken for 1 h and centrifuged at 25° C. for 5 min. 200 μL of each phase was transferred to a separate plate. The octanol layer was sampled first to avoid cross contamination. 5 μL of the solutions were transferred to 495 μL of quench solution* (max concentration 0.5 μM). In addition, 40 μL of buffer solution was added to 360 μL of quench solvent (max concentration 5 μM). Samples were analysed by LC-MS/MS. Benchmarking against a calibration curve for each compound and with reference to the control compounds sulpride, diclofenac, chlorpromazine and tamoxifen. *Quench solution was a 1:3:1 mixture (v/v/v) of Acetonitrile containing 0.1% formic acid and imipramine/labetalol, 200 nM:Acetonitrile:Water.

Molecule `C#CC1(NC(=O)c2cc(NC(=O)Cc3cc(O)c(C(C)(C)C)cc3F)ccn2)CCCC1` [Example 1.2] came in with a solubility (kinetic) at 90 min in data set [1] of 3 µg/mL (≈ 6.86 µM). In addition, in data set [2], the activation at 3.33 µM was 149% and the EC50 stood at 45 nM. For the same molecule, the logD in data set [3] is more than 4.5.

Molecule `CC1(NC(=O)c2cc(NC(=O)Cc3cc(O)c(C(C)(C)CO)cc3Cl)ccn2)CC(F)(F)C1` [Example 15.2, 4-[[2-[2-Chloro-5-hydroxy-4-(2-hydroxy-1,1-dimethyl-ethyl)phenyl]acetyl]amino]-N-(3,3-difluoro-1-methyl-cyclobutyl)pyridine-2-carboxamide] yielded a kinetic solubility at 90 min in data set [1] of 44 µg/mL (≈ 91.3 µM). Further, in data set [2], the activation at 3.33 µM stood at 195% and the EC50 was found to be 36 nM. Moreover, the logD in data set [3] is more than 4.2.

`C#CC(C)(C)NC(=O)c1cc(NC(=O)Cc2cc(O)c(C(C)(C)C)cc2F)ccn1` [Example 1.1] had a kinetic solubility at 90 min in data set [1] of 6 µg/mL (≈ 14.6 µM). Also, in data set [2], the activation at 3.33 µM was determined as 118% and the EC50 was found to be 26 nM. Besides, in data set [3], the logD is more than 4.

In data set [1], `CC(C)c1cc(C(C)(C)C)c(O)cc1CC(=O)Nc1ccnc(C(=O)NC(C)(C)C)c1` [Example 6, N-tert-Butyl-4-[[2-(4-tert-butyl-5-hydroxy-2-isopropyl-phenyl)acetyl]amino]pyridine-2-carboxamide] gave a solubility (kinetic) at 90 min of 12 µg/mL (≈ 28.2 µM). Besides, in data set [2], the activation at 3.33 µM amounted to 513% and the EC50 was 99 nM. The logD in data set [3] is more than 4.

Consider `C=C(C)c1cc(F)c(CC(=O)Nc2ccnc(C(=O)NC3(C(F)(F)F)CC3)c2)cc1O` [Example 7.1, 4-[[2-(2-Fluoro-5-hydroxy-4-isopropenyl-phenyl)acetyl]amino]-N-[1-(trifluoromethyl)cyclopropyl]pyridine-2-carboxamide], for which, in data set [1], the kinetic solubility at 90 min is 18 µg/mL (≈ 41.2 µM). Besides, in data set [2], the activation at 3.33 µM came out at 433% and the EC50 worked out at 15 nM. Also, the logD in data set [3] is more than 4.2.

In the case of `CC(C)(CO)c1cc(F)c(CC(=O)Nc2ccnc(C(=O)NC3(C(F)(F)F)CC3)c2)c(F)c1O` [Example 16.4, 4-[[2-[2,6-Difluoro-3-hydroxy-4-(2-hydroxy-1,1-dimethyl-ethyl)phenyl]acetyl]amino]-N-[1-(trifluoromethyl)cyclopropyl]pyridine-2-carboxamide], the kinetic solubility at 90 min in data set [1] was 75 µg/mL (≈ 154 µM). In data set [2], the activation at 3.33 µM is 280% and the EC50 turned out to be 18 nM. The logD in data set [3] was found to be 3.6.

For `CC(C)(C)NC(=O)c1cc(NC(=O)Cc2cc(O)c(C3(C)CC3)cc2F)ccn1` [Example 8, N-tert-Butyl-4-[[2-[2-fluoro-5-hydroxy-4-(1-methylcyclopropyl)phenyl]acetyl]amino]pyridine-2-carboxamide], the solubility (kinetic) at 90 min in data set [1] amounted to 37 µg/mL (≈ 92.6 µM). Further, in data set [2], the activation at 3.33 µM turned out to be 240% and the 50% effective concentration (EC50) was determined as 46 nM. Besides, in data set [3], the logD is more than 4.

As to `CC(C)(C#N)NC(=O)c1cc(NC(=O)Cc2cc(O)c(C3(C)CCC3)cc2F)ccn1` [Example 5, N-(1-Cyano-1-methyl-ethyl)-4-[[2-[2-fluoro-5-hydroxy-4-(1-methylcyclobutyl)phenyl]acetyl]amino]pyridine-2-carboxamide], the kinetic solubility at 90 min in data set [1] was determined as 17 µg/mL (≈ 40 µM). Besides, in data set [2], the activation at 3.33 µM is 335% and the EC50 is 43 nM. Further, the logD in data set [3] is more than 4.

`N#CC1(NC(=O)c2cc(NC(=O)Cc3cc(O)c(C4(C(F)(F)F)CC4)cc3F)ccn2)CC1` [Example 9, N-(1-Cyanocyclopropyl)-4-[[2-[2-fluoro-5-hydroxy-4-[1-(trifluoromethyl)cyclopropyl]phenyl]acetyl]amino]pyridine-2-carboxamide] had a solubility (kinetic) at 90 min in data set [1] of 72 µg/mL (≈ 156 µM). In addition, in data set [2], the activation at 3.33 µM turned out to be 378% and the EC50 was 88 nM. Also, the logD in data set [3] came to 3.5.

In data set [1], `CC(C)(CO)c1cc(F)c(CC(=O)Nc2ccnc(C(=O)N[C@H]3CCC[C@@H]3O)c2)cc1O` [Example 12.2, 4-[[2-[2-Fluoro-5-hydroxy-4-(2-hydroxy-1,1-dimethyl-ethyl)phenyl]acetyl]amino]-N-[(1S,2S)-2-hydroxycyclopentyl]pyridine-2-carboxamide] gave a kinetic solubility at 90 min of 296 µg/mL (≈ 664 µM). Further, in data set [2], the activation at 3.33 µM stood at 142% and the EC50 was 238 nM. Moreover, in data set [3], the logD is 2.6.

As to `CC(C)(C)c1cc(F)c(CC(=O)Nc2ccnc(C(=O)NC3(C#N)CC3)c2)cc1O` [Example 1.5], in data set [1], the kinetic solubility at 90 min came to 11 µg/mL (≈ 26.8 µM). For the same molecule, in data set [2], the activation at 3.33 µM stood at 148% and the EC50 amounted to 65 nM. Further, the logD in data set [3] amounted to 3.7.

In the case of `CC(C)(C#N)NC(=O)c1cc(NC(=O)Cc2cc(O)c(C3(C(F)(F)F)CCO3)cc2F)ccn1` (centres unmarked) [Example 2.14, N-(1-Cyano-1-methyl-ethyl)-4-[[2-[2-fluoro-5-hydroxy-4-[2-(trifluoromethyl)oxetan-2-yl]phenyl]acetyl]amino]pyridine-2-carboxamide], the solubility (kinetic) at 90 min in data set [1] was found to be 99 µg/mL (≈ 206 µM). In data set [2], the activation at 3.33 µM turned out to be 122% and the EC50 amounted to 27 nM.

The solubility (kinetic) is solubility judged after dilution from a stock solution rather than from solid. What is called EC50 is the concentration needed to bring the measured effect to its halfway point.
